Source: ChEMBL document CHEMBL3991601, “The target landscape of clinical kinase drugs” (Science, 2017)
Calls of active or inactive are those of the source. Cut-off read from the data, not from the text of the source, for most assays here: actives have a measured Kd and inactives only a lower limit.

Legend:
[1] = target: Dual specificity protein kinase CLK1 (Homo sapiens, UniProt P49759)
[2] = target: Protein kinase C beta type (Homo sapiens, UniProt P05771)
[3] = target: Serine/threonine-protein kinase SIK2 (Homo sapiens, UniProt Q9H0K1)
Chain of Serine/threonine-protein kinase SIK2 (Q9H0K1 whole entry): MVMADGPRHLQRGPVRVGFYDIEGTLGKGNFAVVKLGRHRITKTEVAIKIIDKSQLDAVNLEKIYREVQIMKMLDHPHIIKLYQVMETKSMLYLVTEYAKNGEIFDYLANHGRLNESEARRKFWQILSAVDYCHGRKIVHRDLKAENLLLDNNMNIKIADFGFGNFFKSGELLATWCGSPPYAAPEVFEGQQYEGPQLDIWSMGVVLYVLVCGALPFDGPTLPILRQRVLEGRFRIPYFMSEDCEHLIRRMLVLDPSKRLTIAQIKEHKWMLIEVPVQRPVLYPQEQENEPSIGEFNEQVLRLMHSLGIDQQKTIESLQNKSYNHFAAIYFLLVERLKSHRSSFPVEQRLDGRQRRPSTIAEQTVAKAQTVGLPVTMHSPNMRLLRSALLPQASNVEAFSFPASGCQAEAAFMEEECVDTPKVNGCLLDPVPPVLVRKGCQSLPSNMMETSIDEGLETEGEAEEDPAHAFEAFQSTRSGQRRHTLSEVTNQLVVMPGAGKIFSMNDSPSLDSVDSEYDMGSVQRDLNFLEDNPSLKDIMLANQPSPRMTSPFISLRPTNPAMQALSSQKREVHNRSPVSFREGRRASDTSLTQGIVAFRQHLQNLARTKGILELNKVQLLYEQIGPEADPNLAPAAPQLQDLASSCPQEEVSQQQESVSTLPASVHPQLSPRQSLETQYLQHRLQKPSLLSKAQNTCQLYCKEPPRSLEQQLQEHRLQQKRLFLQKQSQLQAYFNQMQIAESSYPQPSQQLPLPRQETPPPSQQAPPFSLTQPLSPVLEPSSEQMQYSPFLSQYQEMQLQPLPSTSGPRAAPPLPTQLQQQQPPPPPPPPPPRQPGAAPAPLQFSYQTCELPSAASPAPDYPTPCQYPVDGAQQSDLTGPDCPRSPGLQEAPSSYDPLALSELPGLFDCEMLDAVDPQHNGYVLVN

[4] = target: T1, ATP-dependent 6-phosphofructokinase, platelet type (Homo sapiens, UniProt Q01813)
T1 sequence (Q01813 whole entry): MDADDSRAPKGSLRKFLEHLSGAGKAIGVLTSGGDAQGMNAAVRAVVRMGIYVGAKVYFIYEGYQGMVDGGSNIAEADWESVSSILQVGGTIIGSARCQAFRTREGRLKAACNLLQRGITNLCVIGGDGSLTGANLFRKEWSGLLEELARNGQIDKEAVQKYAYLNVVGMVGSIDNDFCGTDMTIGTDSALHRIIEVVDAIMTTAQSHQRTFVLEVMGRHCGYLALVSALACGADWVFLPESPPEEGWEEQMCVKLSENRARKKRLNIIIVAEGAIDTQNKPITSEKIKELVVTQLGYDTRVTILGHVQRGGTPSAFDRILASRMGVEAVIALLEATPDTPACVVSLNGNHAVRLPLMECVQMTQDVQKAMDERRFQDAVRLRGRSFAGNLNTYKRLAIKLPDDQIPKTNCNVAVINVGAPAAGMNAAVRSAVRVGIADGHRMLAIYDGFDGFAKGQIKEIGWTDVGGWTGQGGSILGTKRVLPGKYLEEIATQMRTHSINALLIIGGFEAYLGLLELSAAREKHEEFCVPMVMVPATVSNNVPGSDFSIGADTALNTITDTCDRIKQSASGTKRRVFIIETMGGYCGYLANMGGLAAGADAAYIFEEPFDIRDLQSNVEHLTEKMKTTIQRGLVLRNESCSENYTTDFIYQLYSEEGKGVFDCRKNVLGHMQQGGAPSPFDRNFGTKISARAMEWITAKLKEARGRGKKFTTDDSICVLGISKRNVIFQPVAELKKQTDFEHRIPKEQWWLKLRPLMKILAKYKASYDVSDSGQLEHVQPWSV

[5] = target: Mitogen-activated protein kinase 8 (Homo sapiens, UniProt P45983)
Chain of Mitogen-activated protein kinase 8 (P45983 whole entry): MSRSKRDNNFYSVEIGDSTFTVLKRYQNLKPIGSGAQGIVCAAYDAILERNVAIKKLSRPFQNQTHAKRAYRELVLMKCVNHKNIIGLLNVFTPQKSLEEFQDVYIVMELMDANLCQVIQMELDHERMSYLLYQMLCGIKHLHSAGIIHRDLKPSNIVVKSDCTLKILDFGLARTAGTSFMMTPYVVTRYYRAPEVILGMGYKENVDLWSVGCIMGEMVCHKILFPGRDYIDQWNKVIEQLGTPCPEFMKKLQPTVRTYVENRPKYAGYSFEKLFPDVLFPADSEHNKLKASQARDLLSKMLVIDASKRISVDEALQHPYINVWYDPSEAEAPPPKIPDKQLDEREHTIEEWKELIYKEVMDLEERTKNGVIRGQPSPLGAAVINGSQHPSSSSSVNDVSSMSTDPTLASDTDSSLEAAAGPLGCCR

Midasin = Midasin (Homo sapiens, UniProt Q9NU22)
[6] = target: Putative heat shock protein HSP 90-beta 2 (Homo sapiens, UniProt Q58FF8)
Chain of Putative heat shock protein HSP 90-beta 2 (Q58FF8 whole entry): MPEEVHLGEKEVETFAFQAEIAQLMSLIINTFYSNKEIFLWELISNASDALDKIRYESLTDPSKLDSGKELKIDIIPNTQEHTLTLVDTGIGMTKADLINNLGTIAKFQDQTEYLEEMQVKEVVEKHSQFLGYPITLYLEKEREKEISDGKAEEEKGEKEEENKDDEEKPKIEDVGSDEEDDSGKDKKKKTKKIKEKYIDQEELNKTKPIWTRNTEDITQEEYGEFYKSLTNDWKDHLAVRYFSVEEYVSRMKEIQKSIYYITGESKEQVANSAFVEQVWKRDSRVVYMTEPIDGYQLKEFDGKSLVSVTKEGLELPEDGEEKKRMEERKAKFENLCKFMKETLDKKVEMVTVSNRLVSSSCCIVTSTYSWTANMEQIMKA

[7] = target: DNA topoisomerase 2-alpha (Homo sapiens, UniProt P11388)
Chain of DNA topoisomerase 2-alpha (P11388 whole entry): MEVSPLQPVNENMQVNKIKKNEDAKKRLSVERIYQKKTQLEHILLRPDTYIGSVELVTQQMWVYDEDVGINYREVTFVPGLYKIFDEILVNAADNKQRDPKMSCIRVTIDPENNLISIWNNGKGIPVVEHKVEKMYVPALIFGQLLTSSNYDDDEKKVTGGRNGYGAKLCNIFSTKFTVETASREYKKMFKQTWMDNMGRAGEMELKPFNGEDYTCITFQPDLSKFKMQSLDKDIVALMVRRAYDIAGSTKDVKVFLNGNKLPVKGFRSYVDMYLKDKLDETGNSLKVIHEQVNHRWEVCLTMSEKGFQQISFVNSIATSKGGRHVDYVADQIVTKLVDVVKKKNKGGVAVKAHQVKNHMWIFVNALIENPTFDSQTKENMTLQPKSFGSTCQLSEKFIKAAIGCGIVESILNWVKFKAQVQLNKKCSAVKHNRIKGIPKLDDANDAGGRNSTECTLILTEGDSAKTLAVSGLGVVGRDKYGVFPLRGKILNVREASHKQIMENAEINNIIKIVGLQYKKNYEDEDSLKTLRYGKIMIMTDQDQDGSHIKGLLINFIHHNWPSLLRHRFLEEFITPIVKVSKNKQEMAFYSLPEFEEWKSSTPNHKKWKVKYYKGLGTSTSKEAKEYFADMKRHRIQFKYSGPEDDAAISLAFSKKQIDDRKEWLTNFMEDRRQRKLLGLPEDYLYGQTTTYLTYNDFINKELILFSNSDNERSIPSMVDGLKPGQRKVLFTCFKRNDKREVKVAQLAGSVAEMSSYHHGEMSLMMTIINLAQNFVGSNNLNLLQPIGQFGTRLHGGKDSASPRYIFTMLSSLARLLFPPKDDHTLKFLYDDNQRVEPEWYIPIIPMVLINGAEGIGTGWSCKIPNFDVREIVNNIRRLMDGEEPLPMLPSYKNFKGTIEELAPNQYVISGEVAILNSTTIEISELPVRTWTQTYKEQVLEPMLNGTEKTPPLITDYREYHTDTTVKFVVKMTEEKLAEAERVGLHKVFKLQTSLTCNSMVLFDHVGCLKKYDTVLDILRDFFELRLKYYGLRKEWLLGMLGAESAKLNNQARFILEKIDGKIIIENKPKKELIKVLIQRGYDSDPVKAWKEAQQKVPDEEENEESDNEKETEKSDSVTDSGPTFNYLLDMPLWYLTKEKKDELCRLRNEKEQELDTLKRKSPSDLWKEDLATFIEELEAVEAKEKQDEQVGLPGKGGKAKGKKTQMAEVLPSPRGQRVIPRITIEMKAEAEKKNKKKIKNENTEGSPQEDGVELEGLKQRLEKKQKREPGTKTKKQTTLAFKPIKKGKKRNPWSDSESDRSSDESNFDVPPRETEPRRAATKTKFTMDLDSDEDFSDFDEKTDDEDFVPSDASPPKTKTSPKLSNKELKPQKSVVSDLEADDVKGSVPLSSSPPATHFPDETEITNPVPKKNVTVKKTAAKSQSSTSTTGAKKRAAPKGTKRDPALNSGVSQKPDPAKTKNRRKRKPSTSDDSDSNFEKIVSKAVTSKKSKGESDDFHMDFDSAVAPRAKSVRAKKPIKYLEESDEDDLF

[8] = target: T2, Cyclin-G-associated kinase (Homo sapiens, UniProt O14976)
T2 sequence (O14976 whole entry): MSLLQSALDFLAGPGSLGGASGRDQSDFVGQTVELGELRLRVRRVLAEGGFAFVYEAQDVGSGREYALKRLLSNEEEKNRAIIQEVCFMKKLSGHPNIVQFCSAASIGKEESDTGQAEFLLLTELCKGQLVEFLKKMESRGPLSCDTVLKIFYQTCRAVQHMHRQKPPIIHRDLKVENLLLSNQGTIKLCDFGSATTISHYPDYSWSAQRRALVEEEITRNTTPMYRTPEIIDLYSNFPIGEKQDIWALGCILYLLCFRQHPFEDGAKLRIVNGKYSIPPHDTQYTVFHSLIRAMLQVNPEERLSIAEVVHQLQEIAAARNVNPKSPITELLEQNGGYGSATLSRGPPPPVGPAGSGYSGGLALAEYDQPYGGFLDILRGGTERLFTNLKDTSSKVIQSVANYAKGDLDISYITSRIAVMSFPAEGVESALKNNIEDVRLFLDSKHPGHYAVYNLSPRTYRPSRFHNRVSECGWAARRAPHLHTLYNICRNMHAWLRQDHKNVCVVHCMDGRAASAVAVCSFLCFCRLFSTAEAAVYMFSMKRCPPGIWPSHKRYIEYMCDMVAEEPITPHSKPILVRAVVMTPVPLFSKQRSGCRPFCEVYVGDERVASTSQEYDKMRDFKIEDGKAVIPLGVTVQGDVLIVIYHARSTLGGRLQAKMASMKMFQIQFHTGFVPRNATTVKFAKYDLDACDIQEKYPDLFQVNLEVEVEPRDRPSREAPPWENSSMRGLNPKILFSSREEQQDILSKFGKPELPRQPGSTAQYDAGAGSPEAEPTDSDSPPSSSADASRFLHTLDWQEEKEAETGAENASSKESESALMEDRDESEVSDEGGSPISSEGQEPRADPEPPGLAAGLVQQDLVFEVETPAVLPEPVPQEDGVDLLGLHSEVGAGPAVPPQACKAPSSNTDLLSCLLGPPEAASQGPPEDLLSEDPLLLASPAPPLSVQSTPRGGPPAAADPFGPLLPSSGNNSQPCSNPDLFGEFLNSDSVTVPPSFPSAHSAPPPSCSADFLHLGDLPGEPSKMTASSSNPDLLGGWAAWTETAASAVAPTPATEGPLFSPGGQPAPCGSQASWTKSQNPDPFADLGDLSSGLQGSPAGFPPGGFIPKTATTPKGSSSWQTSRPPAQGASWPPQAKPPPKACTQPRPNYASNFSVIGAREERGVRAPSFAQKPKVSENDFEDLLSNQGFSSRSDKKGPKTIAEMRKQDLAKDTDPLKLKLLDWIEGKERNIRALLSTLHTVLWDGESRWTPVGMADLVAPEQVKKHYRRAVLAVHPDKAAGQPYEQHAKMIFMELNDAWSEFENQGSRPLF

[9] = target: T3, Serine/threonine-protein kinase 4 (Homo sapiens, UniProt Q13043)
T3 sequence (Q13043 whole entry): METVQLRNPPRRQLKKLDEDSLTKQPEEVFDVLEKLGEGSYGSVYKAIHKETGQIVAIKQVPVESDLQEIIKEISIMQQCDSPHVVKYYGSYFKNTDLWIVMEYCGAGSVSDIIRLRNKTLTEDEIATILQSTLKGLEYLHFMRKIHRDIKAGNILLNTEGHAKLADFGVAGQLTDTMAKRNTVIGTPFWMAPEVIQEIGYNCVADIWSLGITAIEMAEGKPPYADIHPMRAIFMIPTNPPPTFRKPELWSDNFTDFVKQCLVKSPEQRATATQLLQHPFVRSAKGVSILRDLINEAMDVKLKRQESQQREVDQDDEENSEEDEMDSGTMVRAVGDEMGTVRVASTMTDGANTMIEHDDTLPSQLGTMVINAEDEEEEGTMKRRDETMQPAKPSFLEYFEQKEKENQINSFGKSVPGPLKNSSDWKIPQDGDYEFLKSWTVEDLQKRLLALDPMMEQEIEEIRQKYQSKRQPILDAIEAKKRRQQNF

[10] = target: cAMP-dependent protein kinase catalytic subunit beta (Homo sapiens, UniProt P22694)
Note: in the data inactive means no Kd found up to 30 µM.

Chain of Dual specificity protein kinase CLK1 (P49759 whole entry): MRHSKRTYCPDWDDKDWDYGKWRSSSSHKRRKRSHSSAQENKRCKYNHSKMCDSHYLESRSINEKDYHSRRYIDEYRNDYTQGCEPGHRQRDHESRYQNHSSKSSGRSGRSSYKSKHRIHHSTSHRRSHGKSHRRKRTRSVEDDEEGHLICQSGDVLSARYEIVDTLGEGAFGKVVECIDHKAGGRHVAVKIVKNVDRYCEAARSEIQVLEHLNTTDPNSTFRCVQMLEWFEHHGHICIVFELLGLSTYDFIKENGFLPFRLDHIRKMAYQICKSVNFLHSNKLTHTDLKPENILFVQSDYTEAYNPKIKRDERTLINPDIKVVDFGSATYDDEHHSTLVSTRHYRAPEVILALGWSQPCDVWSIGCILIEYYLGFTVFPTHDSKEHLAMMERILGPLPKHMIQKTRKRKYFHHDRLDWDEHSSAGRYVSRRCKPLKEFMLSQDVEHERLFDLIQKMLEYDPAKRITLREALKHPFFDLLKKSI
Chain of Protein kinase C beta type (P05771 whole entry): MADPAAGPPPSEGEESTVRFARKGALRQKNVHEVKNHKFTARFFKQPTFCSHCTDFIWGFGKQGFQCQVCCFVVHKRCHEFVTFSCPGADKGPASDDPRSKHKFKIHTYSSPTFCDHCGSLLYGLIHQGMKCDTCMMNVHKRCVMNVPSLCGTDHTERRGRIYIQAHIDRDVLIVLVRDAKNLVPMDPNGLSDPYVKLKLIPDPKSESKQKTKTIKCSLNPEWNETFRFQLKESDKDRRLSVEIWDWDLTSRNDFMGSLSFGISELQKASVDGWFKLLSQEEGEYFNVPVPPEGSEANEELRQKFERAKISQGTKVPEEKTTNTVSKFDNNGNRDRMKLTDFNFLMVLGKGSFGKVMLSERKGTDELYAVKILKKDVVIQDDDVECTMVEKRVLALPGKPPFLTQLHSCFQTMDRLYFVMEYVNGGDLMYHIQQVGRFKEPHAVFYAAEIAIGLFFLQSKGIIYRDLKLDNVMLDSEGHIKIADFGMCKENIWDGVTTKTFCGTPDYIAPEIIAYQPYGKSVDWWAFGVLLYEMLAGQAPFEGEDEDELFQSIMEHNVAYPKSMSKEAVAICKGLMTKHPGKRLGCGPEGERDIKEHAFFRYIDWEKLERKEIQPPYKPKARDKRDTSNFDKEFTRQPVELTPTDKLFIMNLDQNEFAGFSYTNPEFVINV

| Structure (SMILES) | Kd [1] | Kd [2] | Kd [3] | Kd [4] | Kd [5] | Kd (Midasin) | Kd [6] | Kd [7] | Kd [8] | Kd [9] | Kd [10] |
| --- | --- | --- | --- | --- | --- | --- | --- | --- | --- | --- | --- |
| Cn1cc(-c2ccc3nnc(C(F)(F)c4ccc5ncccc5c4)n3n2)cn1 [JNJ-38877605] | > 30 µM (inactive) | > 30 µM (inactive) | > 30 µM (inactive) | > 30 µM (inactive) | > 30 µM (inactive) | > 30 µM (inactive) | > 30 µM (inactive) | > 30 µM (inactive) | > 30 µM (inactive) | > 30 µM (inactive) | > 30 µM (inactive) |
| CNS(=O)(=O)Nc1nccc(Cc2c(C)c3ccc(Oc4ncccn4)cc3oc2=O)c1F [AVUTOMETINIB] | > 30 µM (inactive) | > 30 µM (inactive) | > 30 µM (inactive) | > 30 µM (inactive) | > 30 µM (inactive) | > 30 µM (inactive) | > 30 µM (inactive) | > 30 µM (inactive) | > 30 µM (inactive) | > 30 µM (inactive) | > 30 µM (inactive) |
| CN(C)C(=O)c1cc2cnc(Nc3ccc(N4CCNCC4)cn3)nc2n1C1CCCC1 [RIBOCICLIB] | > 30 µM (inactive) | > 30 µM (inactive) | 2.49 µM (active) | > 30 µM (inactive) | > 30 µM (inactive) | > 30 µM (inactive) | > 30 µM (inactive) | > 30 µM (inactive) | 0.658 µM (active) | > 30 µM (inactive) | > 30 µM (inactive) |
| COc1ccc(-c2ccc3c(N4CCOC[C@@H]4C)nc(N4CCOC[C@@H]4C)nc3n2)cc1CO [AZD-8055] | > 30 µM (inactive) | > 30 µM (inactive) | > 30 µM (inactive) | > 30 µM (inactive) | > 30 µM (inactive) | > 30 µM (inactive) | > 30 µM (inactive) | > 30 µM (inactive) | > 30 µM (inactive) | > 30 µM (inactive) | > 30 µM (inactive) |
| COc1cc2nccc(Oc3ccc(NC(=O)Nc4cc(C)on4)c(Cl)c3)c2cc1OC [TIVOZANIB] | > 30 µM (inactive) | > 30 µM (inactive) | > 30 µM (inactive) | > 30 µM (inactive) | > 30 µM (inactive) | > 30 µM (inactive) | > 30 µM (inactive) | > 30 µM (inactive) | > 30 µM (inactive) | > 30 µM (inactive) | > 30 µM (inactive) |
| C[C@@H](Nc1cc(F)cc(F)c1)c1cc(C(=O)N(C)C)cc2c(=O)cc(N3CCOCC3)oc12 [AZD-8186] | > 30 µM (inactive) | > 30 µM (inactive) | > 30 µM (inactive) | > 30 µM (inactive) | > 30 µM (inactive) | > 30 µM (inactive) | > 30 µM (inactive) | > 30 µM (inactive) | > 30 µM (inactive) | > 30 µM (inactive) | > 30 µM (inactive) |
| CCCS(=O)(=O)Nc1ccc(F)c(C(=O)c2c[nH]c3ncc(-c4ccc(Cl)cc4)cc23)c1F [VEMURAFENIB] | > 30 µM (inactive) | > 30 µM (inactive) | > 30 µM (inactive) | > 30 µM (inactive) | > 30 µM (inactive) | > 30 µM (inactive) | > 30 µM (inactive) | > 30 µM (inactive) | > 30 µM (inactive) | > 30 µM (inactive) | > 30 µM (inactive) |
| C[C@@H](c1ccc2nccn2c1)n1nnc2ncc(-c3cnn(C)c3)nc21 [SAVOLITINIB] | > 30 µM (inactive) | > 30 µM (inactive) | > 30 µM (inactive) | > 30 µM (inactive) | > 30 µM (inactive) | > 30 µM (inactive) | > 30 µM (inactive) | > 30 µM (inactive) | > 30 µM (inactive) | > 30 µM (inactive) | > 30 µM (inactive) |
| COc1cc(N2CCC(N3CCN(C)CC3)CC2)ccc1Nc1ncnc(Nc2ccccc2S(=O)(=O)C(C)C)n1 [ASP-3026] | > 30 µM (inactive) | > 30 µM (inactive) | 0.123 µM (active) | > 30 µM (inactive) | > 30 µM (inactive) | > 30 µM (inactive) | > 30 µM (inactive) | > 30 µM (inactive) | 2.82 µM (active) | > 30 µM (inactive) | > 30 µM (inactive) |
| CCn1c(=O)c(-c2cc[nH]n2)cc2c(C)nc(N)nc21 [VOXTALISIB] | > 30 µM (inactive) | > 30 µM (inactive) | > 30 µM (inactive) | > 30 µM (inactive) | > 30 µM (inactive) | > 30 µM (inactive) | > 30 µM (inactive) | > 30 µM (inactive) | > 30 µM (inactive) | > 30 µM (inactive) | > 30 µM (inactive) |
| COc1cc(OC)c(/C=C/S(=O)(=O)Cc2ccc(OC)c(NCC(=O)O)c2)c(OC)c1 [RIGOSERTIB] | > 30 µM (inactive) | > 30 µM (inactive) | > 30 µM (inactive) | > 30 µM (inactive) | > 30 µM (inactive) | > 30 µM (inactive) | > 30 µM (inactive) | > 30 µM (inactive) | > 30 µM (inactive) | > 30 µM (inactive) | > 30 µM (inactive) |
| Cc1ccc(-n2nc(C(C)(C)C)cc2NC(=O)NCc2cc(F)ccc2Oc2ccc3c(cnn3CCO)c2)cc1 [PEXMETINIB] | > 30 µM (inactive) | > 30 µM (inactive) | > 30 µM (inactive) | > 30 µM (inactive) | > 30 µM (inactive) | > 30 µM (inactive) | > 30 µM (inactive) | > 30 µM (inactive) | > 30 µM (inactive) | > 30 µM (inactive) | > 30 µM (inactive) |
